Where two headings read alike, the source gives them in different places.
Key:
[1] = target: MDM2 (Homo sapiens, UniProt Q00987); test: Competitive fluorescence polarization assay for MDM2; type: binding; settings: competitive FP assay, MDM2
[2] = target: T1, MDMX (Homo sapiens, UniProt O15151); test: Competitive fluorescence polarization assay for MDMX; type: binding; settings: competitive FP assay; for IC50: read-out: IC50 (MDMX); for Ki: read-out: Ki (MDMX)
T1 sequence (O15151 1-125): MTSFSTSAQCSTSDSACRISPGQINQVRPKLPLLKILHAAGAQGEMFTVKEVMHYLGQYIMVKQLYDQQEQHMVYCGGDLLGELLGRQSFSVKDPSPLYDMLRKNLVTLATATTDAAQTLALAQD

[3] = test system: Caspase 3; test: Caspase 3 detection assay in SJSA1 cells; type: cell-based; settings: 48 h, Caspase 3 activation over DMSO-treated cells; for caspase 0.3 uM: 0.3 uM peptide; for caspase 3 uM: 3 uM peptide; for caspase 10 uM: 10 uM peptide; for caspase 30 uM: 30 uM peptide; for caspase 1 uM: 1 uM peptide
[4] = test system: SJSA-1 cells; test: Cell lysis by peptidomimetic macrocycles (LDH release); type: cell-based; settings: 1 h at 37C

Sequence of MDM2 (Q00987 1-125): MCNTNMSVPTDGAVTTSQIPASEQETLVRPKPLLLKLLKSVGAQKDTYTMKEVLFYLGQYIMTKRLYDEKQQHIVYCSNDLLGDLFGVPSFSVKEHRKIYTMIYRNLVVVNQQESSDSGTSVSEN

Compound | IC50 ([1]; read-out: IC50 (MDM2)) [nM] | Ki ([1]; read-out: Ki (MDM2)) [nM] | IC50 [2] [nM] | Ki [2] [nM] | caspase 0.3 uM [3] | caspase 3 uM [3] | caspase 10 uM [3] | caspase 30 uM [3] | 6.25 uM % Lysed cells (1 h LDH) [4] [%] | 25 uM % Lysed cells (1 h LDH) [4] [%] | 50 uM % Lysed cells (1 h LDH) [4] [%] | IC50 ([1]; IC50 (MDM2)) [nM] | Ki ([1]; Ki (MDM2)) [nM] | caspase 1 uM [3]
CC(=O)N[C@@H](CC(C)C)C(=O)N[C@H](C(=O)N[C@@H](Cc1ccccc1)C(=O)N[C@]1(C)CCCCCCC=CCCC[C@@](C)(C(=O)N[C@@H](CO)C(=O)NC(C)(C)C(=O)N[C@@H](C)C(=O)N[C@@H](C)C(N)=O)NC(=O)[C@H](CC(C)C)NC(=O)[C@H](CCC(N)=O)NC(=O)[C@H](C)NC(=O)[C@H](Cc2c[nH]c3ccccc23)NC(=O)[C@H](Cc2ccc(O)cc2)NC(=O)[C@H](C)NC1=O)[C@@H](C)O (single isomer, unassigned) [compound 26] | 10 to 100 | < 10 | 100 to 1000 | 10 to 100 | 1 | 1 | 3 | 14 | 2 | −1 | 0 | – | – | –
CC[C@H](C)[C@H](NC(=O)[C@H](C)NC(=O)[C@H](C)NC(=O)[C@]1(C)CCCC=CCCCCCC[C@@](C)(NC(=O)[C@H](Cc2ccccc2)NC(=O)[C@@H](NC(=O)[C@H](CC(C)C)NC(C)=O)[C@@H](C)O)C(=O)N[C@@H](C)C(=O)N[C@@H](Cc2ccc(O)cc2)C(=O)N[C@@H](Cc2c[nH]c3ccccc23)C(=O)N[C@@H](C)C(=O)N[C@@H](CCC(N)=O)C(=O)N[C@@H](CC(C)C)C(=O)N1)C(=O)N[C@@H](C)C(N)=O (single isomer, unassigned) [compound 65] | 10 to 100 | < 10 | 100 to 1000 | 10 to 100 | 1 | 6 | 28 | 34 | 0 | 0 | 2 | – | – | –
CC[C@H](C)[C@H](NC(=O)[C@H](C)NC(=O)[C@H](C)NC(=O)[C@]1(C)CCCC=CCCCCCC[C@@](C)(NC(=O)[C@H](Cc2ccccc2)NC(=O)[C@@H](NC(=O)[C@H](CC(C)C)NC(C)=O)[C@@H](C)O)C(=O)N[C@@H](C)C(=O)N[C@@H](Cc2ccc(O)cc2)C(=O)N[C@@H](Cc2c[nH]c3ccccc23)C(=O)N[C@@H](C)C(=O)N[C@@H](C)C(=O)N[C@@H](CC(C)C)C(=O)N1)C(=O)N[C@@H](C(N)=O)C(C)C (single isomer, unassigned) [compound 77] | 10 to 100 | < 10 | 100 to 1000 | 10 to 100 | 1 | 2 | 19 | 23 | −2 | 1 | −1 | – | – | –
CCCC[C@H](NC(=O)[C@H](C)NC(=O)[C@H](C)NC(=O)[C@]1(C)CCCC=CCCCCCC[C@@](C)(NC(=O)[C@H](Cc2ccccc2)NC(=O)[C@@H](NC(=O)[C@H](CC(C)C)NC(C)=O)[C@@H](C)O)C(=O)N[C@@H](C)C(=O)N[C@@H](Cc2ccc(O)cc2)C(=O)N[C@@H](Cc2c[nH]c3ccccc23)C(=O)N[C@@H](C)C(=O)N[C@@H](C)C(=O)N[C@@H](CC(C)C)C(=O)N1)C(=O)N[C@@H](C(N)=O)C(C)C (single isomer, unassigned) [compound 80] | 10 to 100 | < 10 | 100 to 1000 | 10 to 100 | 1 | 2 | 13 | 20 | 0 | 1 | 5 | – | – | –
CC(=O)N[C@@H](CC(C)C)C(=O)N[C@H](C(=O)N[C@@H](Cc1ccccc1)C(=O)N[C@]1(C)CCCCCCC=CCCC[C@@](C)(C(=O)N[C@@H](CO)C(=O)N[C@@H](CC(C)C)C(=O)N[C@@H](C)C(N)=O)NC(=O)[C@H](CC(C)C)NC(=O)[C@H](CCC(N)=O)NC(=O)[C@H](C)NC(=O)[C@H](Cc2c[nH]c3ccccc23)NC(=O)[C@H](Cc2ccc(O)cc2)NC(=O)[C@H](C)NC1=O)[C@@H](C)O (single isomer, unassigned) [compound 118] | < 10 | < 10 | 100 to 1000 | 10 to 100 | 1 | 2 | 18 | 27 | 4 | 2 | 4 | – | – | –
CC(=O)N[C@@H](CC(C)C)C(=O)N[C@H](C(=O)N[C@@H](Cc1ccccc1)C(=O)N[C@]1(C)CCCCCCC=CCCC[C@@](C)(C(=O)N[C@@H](CO)C(=O)N[C@@H](Cc2c[nH]c3ccccc23)C(=O)N[C@@H](C)C(N)=O)NC(=O)[C@H](CC(C)C)NC(=O)[C@H](CCC(N)=O)NC(=O)[C@H](C)NC(=O)[C@H](Cc2c[nH]c3ccccc23)NC(=O)[C@H](Cc2ccc(O)cc2)NC(=O)[C@H](C)NC1=O)[C@@H](C)O (single isomer, unassigned) [compound 120] | 10 to 100 | < 10 | 100 to 1000 | 10 to 100 | 2 | 11 | 20 | 30 | 0 | 0 | 6 | – | – | –
CC(=O)N[C@@H](CC(C)C)C(=O)N[C@H](C(=O)N[C@@H](Cc1ccccc1)C(=O)N[C@]1(C)CCCCCCC=CCCC[C@@](C)(C(=O)N[C@@H](C)C(=O)N[C@@H](C)C(=O)N[C@@H](C)C(=O)N[C@@H](C)C(=O)N[C@@H](C)C(=O)N[C@@H](C)C(=O)N[C@H](C)C(N)=O)NC(=O)[C@H](CC(C)C)NC(=O)[C@H](CCC(N)=O)NC(=O)[C@H](C)NC(=O)[C@H](Cc2c[nH]c3ccccc23)NC(=O)[C@H](Cc2ccc(O)cc2)NC(=O)[C@H](C)NC1=O)[C@@H](C)O (single isomer, unassigned) [compound 316] | – | – | – | – | 6.5 | 21 | 32 | 32.5 | 0 | 0 | 1 | < 10 | < 10 | 10.5
CC(=O)N[C@@H](CC(C)C)C(=O)N[C@H](C(=O)N[C@@H](Cc1ccccc1)C(=O)N[C@]1(C)CCCCCCC=CCCC[C@@](C)(C(=O)N[C@@H](C)C(=O)N[C@@H](C)C(=O)N[C@@H](C)C(=O)N[C@@H](C)C(=O)N[C@@H](C)C(=O)N[C@@H](C)C(=O)N[C@H](C)C(N)=O)NC(=O)[C@H](CC(C)C)NC(=O)[C@H](CCC(N)=O)NC(=O)[C@H](C)NC(=O)[C@H](Cc2c[nH]c3ccccc23)NC(=O)[C@H](Cc2ccc(O)cc2)NC(=O)[C@H](C)NC1=O)[C@@H](C)O (single isomer, unassigned) [compound 317] | – | – | – | – | 3 | 9 | 26 | 35 | 0 | 0 | 0 | 10 to 100 | 10 to 100 | 4

— US8927500B2, “Peptidomimetic macrocycles” (Aileron Therapeutics, Inc., priority 2012, dated 2015)
